Data taken from US20040266718A1, “Inhibition of specific histone deacetylase isoforms” (priority 2001, published 2004).

Key:
HMEC = test: apoptosis, Cell Death Detection ELISA, HMEC; type: cell-based, human; conditions: 100 ng/ml, normal cells
Experimental: (§1) In order to determine the effect of HDAC OSDNs on cell growth and cell death through apoptosis, A549 or T24 cells, MDAmb231 cells, and HMEC cells (ATCC, Manassas, Va.) were treated with HDAC OSDNs as previously described.
(§2) For the apoptosis study, cells were analyzed using the Cell Death Detection ELISA^Plus kit (Roche Diagnostic GmBH, Mannheim, Germany) according to the manufacturer's directions. Typically, 10,000 cells were plated in 96-well tissue culture dishes for 2 hours before harvest and lysis. Each sample was analyzed in duplicate. ELISA reading was done using a MR700 plate reader (DYNEX Technology, Ashford, Middlesex, England) at 410 nm. The reference was set at 490 nm.

[1] = system: Bax mRNA expression in A549 cells; test: RNase protection assay, Bax in A549; type: cell-based, human; conditions: TSA vs lipofectin, 250 ng/ml, 16 hours
Experimental: (§6) As a control, A549 cells were treated by lipofectin with or without TSA (250 ng/ml) treatment for 16 hours. These RNase protection assays were done according to the following procedure. Total RNA from cells was prepared using “RNeasy miniprep kit” from QIAGEN following the manufacturer's manual. Labeled probes used in the protection assays were synthesized using “hStress-1 multiple-probe template sets” from Pharmingen (San Diego, Calif., U.S.A.) according to the manufacturer's instructions. Protection procedures were performed using “RPA II™ Ribonuclease Protection Assay Kit” from Ambion, (Austin, Tex.) following the manufacturer's instructions. Quantitation of the bands from autoradiograms was done by using Cyclone™ Phosphor System (Packard Instruments Co. Inc., Meriden, Conn.).

[2] = system: GADD45 mRNA expression in A549 cells; test: RNase protection assay, GADD45 in A549; type: cell-based, human; conditions: TSA vs lipofectin, 250 ng/ml, 16 hours
Experimental: as §6

T24 = test: apoptosis, Cell Death Detection ELISA, T24; type: cell-based, human; conditions: 100 ng/ml
Experimental: as §1, §2

A549 [3] = test: apoptosis, Cell Death Detection ELISA, A549; type: cell-based, human; conditions: 100 ng/ml
Experimental: as §1, §2

[4] = system: p21 mRNA expression in A549 cells; test: RNase protection assay, p21 in A549; type: cell-based, human; conditions: TSA vs lipofectin, 250 ng/ml, 16 hours
Experimental: as §6

MDAmb231 = test: apoptosis, Cell Death Detection ELISA, MDAmb231; type: cell-based, human; conditions: 100 ng/ml
Experimental: as §1, §2

human HDAC-1 = biological target: T1, human HDAC-1 (Homo sapiens, UniProt Q13547); test: histone deacetylase enzyme assay, HDAC-1; type: biochemical; conditions: recombinant human enzyme, [3H]-acetylated histone substrate, 10 minutes; read-out: Enzyme IC50 (μM) HDAC1
T1 construct: made in house; host or cells: insect cells (baculovirus expression system)
T1 sequence (Q13547 whole entry): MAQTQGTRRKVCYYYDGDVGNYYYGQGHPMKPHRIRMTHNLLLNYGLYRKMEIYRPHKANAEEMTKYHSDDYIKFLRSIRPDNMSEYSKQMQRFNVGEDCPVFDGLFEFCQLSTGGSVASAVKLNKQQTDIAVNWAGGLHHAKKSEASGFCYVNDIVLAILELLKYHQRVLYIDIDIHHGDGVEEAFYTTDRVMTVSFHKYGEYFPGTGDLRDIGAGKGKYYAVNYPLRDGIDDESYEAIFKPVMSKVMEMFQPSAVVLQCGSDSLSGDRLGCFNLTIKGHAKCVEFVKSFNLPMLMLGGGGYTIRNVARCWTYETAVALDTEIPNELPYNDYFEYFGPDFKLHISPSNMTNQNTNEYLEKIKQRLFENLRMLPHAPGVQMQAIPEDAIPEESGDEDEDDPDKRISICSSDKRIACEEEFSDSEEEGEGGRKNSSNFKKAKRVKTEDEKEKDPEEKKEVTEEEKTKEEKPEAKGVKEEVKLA
Experimental: (§3) The other HDAC isotypes, HDAC-3 and HDAC-4, were purified directly on an anti-Flag affinity column.
(§4) For the deacetylase assay, 20,000 cpm of an [^3H]-metabolically-labeled acetylated histone was used as a substrate. Histones were incubated with cloned recombinant human HDAC enzymes at 37° C. […] All assay conditions were pre-determined to be certain that each reaction was linear. Reactions were stopped by adding acetic acid (0.04 M, final concentration) and HCl (250 mM, final concentration). The mixture was extracted with ethyl acetate, and the released [^3H]-acetic acid was quantified by liquid scintillation counting. For the inhibition studies, HDAC enzyme was preincubated with test compounds for 30 minutes at 4° C. prior to the start of the enzymatic assay. IC50 values for HDAC enzyme inhibitors were identified with dose response curves for each individual compound and, thereby, obtaining a value for the concentration of inhibitor that produced fifty percent of the maximal inhibition.

human HDAC-4 = biological target: T2, human HDAC-4 (Homo sapiens, UniProt P56524); test: histone deacetylase enzyme assay, HDAC-4; type: biochemical; conditions: recombinant human enzyme, [3H]-acetylated histone substrate, 2 hours; read-out: Enzyme IC50 (μM) HDAC4
T2 construct: Flag; made in house
T2 sequence (P56524 whole entry): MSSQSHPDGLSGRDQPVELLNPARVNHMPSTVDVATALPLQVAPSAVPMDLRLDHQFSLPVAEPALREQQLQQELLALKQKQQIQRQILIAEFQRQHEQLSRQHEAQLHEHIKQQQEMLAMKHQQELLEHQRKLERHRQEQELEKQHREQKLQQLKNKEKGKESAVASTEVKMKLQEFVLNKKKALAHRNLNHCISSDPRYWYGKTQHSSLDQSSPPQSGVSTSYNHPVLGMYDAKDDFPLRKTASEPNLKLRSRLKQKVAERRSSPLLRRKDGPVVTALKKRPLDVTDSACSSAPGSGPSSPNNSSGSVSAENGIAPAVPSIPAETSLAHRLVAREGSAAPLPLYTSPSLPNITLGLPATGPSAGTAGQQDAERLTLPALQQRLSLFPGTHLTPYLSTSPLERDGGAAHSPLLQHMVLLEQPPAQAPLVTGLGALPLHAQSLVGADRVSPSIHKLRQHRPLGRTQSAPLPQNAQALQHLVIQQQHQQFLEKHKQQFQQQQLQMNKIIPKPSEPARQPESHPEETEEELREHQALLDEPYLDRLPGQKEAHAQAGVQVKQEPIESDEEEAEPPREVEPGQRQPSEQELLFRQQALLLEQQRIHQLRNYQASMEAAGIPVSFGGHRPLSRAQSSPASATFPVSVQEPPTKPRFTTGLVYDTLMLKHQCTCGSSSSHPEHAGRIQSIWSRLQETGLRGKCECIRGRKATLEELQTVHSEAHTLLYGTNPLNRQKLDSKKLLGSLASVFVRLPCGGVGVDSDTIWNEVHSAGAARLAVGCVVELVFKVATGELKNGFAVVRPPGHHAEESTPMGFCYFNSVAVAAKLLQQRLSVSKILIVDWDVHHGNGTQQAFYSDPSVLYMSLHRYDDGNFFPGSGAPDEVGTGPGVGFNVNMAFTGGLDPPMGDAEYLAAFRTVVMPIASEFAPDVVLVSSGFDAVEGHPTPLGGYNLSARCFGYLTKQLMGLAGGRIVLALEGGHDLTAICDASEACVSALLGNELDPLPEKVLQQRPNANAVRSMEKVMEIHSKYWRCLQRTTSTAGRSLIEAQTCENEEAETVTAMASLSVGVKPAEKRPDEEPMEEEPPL
Experimental: Flag-tagged human HDAC-4 enzyme was produced in human embronic kidney 293 cells after transformation by the calcium phosphate precipitation method. Briefly, 293 cells were cultured in Dulbecco's Modified Eagle Medium (DMEM) containing 10% fetal bovine serum and antibiotics. Plasmid DNA encoding Flag-tagged human HDAC-4 was precipitated by ethanol and resuspend in sterile water. DNA-calcium precipitates, formed by mixing DNA, calcium choloride and 2× HEPES-buffered saline solution, were left on 293 cells for 12-16 hours. Cells were return to serum-contained. DMEM medium and harvested at 48 hour post transfection for purification of Flag-tagged HDAC-4 enzyme.
as §3
For the deacetylase assay, 20,000 cpm of an [^3H]-metabolically-labeled acetylated histone was used as a substrate. Histones were incubated with cloned recombinant human HDAC enzymes at 37° C. […] All assay conditions were pre-determined to be certain that each reaction was linear. Reactions were stopped by adding acetic acid (0.04 M, final concentration) and HCl (250 mM, final concentration). The mixture was extracted with ethyl acetate, and the released [^3H]-acetic acid was quantified by liquid scintillation counting. […]

[5] = system: acetylated histone H-4 in T24 human bladder cancer cells; test: inhibition of HDAC activity in whole cells (acetylated histone H-4 Western blot); type: cell-based; conditions: 16 hours
Experimental: T24 human bladder cancer cells (ATCC, Manassas, Va.) growing in culture were incubated with test compounds for 16 hours. Histones were extracted from the cells by standard procedures (see e.g. Yoshida et al., supra) after the culture period. Twenty μg total core histone protein was loaded onto SDS/PAGE and transferred to nitrocellulose membranes, which were then reacted with polyclonal antibody specific for acetylated histone H-4 (Upstate Biotech Inc., Lake Placid, […].). Horse Radish Peroxidase conjugated secondary antibody was used at a dilution of 1:5000 to detect primary antibody binding. The secondary antibody binding was visualized by use of the Enhanced chemiluminescence (ECL) detection kit (Amersham-Pharmacia Biotech., Inc., Piscataway, N.J.). After exposure to film, acetylated H-4 signal was quantitated by densitometry.

[6] = system: Human cancer HCT116 cells; test: cell cycle arrest by FACS; type: cell-based; conditions: HCT116, 16 hours; concentration to induce a (G2+M)/S ratio of 2.5
Experimental: Human cancer HCT116 cells were plated at 2×10^5 per 10-cm dish and were left to attach to the dish overnight in the incubator. Cells were treated with small molecule inhibitors at various concentrations (1 uM and 10 uM, typically, dissolved in DMSO) for 16 hours. Cells were harvested by trypsinization and washed once in 1×PBS (phosphate buffered saline). The cells were resuspended in about 200 ul 1×PBS and were fixed by slowly adding 1 ml 70% ethanol at −20° C. and were left at least overnight at −20° C. Fixed cells were centrifuged at low speed (1,000 rpm) for 5 minutes, and the cell pellets were washed again with 1×PBS. Nucleic acids from fixed cells were incubated in a staining solution (0.1% (w/v) glucose in 1×PBS containing 50 ug/ml propidium iodide) (Sigma-Aldridge, Mississauga, Ontario, CA) and RNase A (final 100 units/ml, (Sigma-Aldridge, Mississauga, Ontario, CA) for at least 30 minutes in the dark at 25° C. DNA content was measured by using a fluorescence-activated cell sorter (FACS) machine. Treatment of cells with all HDAC small molecule inhibitors in Table 2 results in a significant accumulation of cancer cell in G2/M phase of the cell cycle and concomitantly reduce the accumulation of cancer cells in S phase of the cell cycle. The ratio of cells in G2/M phase vs. cells in the S. phase was determined. […]

human HDAC-3 = biological target: T3, human HDAC-3 (Homo sapiens, UniProt O15379); test: histone deacetylase enzyme assay, HDAC-3; type: biochemical; conditions: recombinant human enzyme, [3H]-acetylated histone substrate, 2 hours; read-out: Enzyme IC50 (μM) HDAC3
T3 construct: made in house; host or cells: insect cells (baculovirus expression system)
T3 sequence (O15379 whole entry): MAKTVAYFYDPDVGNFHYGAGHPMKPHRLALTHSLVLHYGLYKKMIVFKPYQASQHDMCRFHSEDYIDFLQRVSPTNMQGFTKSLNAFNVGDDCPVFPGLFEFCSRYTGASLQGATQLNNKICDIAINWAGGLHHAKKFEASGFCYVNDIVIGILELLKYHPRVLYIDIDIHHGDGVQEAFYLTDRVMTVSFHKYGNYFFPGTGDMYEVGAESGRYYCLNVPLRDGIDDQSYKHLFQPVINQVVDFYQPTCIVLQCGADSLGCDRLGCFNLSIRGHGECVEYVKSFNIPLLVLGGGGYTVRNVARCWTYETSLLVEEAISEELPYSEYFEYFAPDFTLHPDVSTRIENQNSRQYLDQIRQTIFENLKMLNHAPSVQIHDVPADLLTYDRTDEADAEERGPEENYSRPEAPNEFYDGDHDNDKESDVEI
Experimental: as §3, §4

[7] = system: human colon cancer cells (HCT116); test: tumor growth in mouse model, colon; type: in vivo, BALB/c nude mice; conditions: 40 mg/kg body weight/day, po
Experimental: (§5) Female BALB/c nude mice were obtained from Charles River Laboratories (Charles River, N.Y.) and used at age 8-10 weeks. Human prostate tumor cells (DU145, 2×10^6) or human colon cancer cells (HCT116; 2×10^6) or […] A549 2×106 were injected subcutaneously in the animal's flank and allowed to form solid tumors. Tumor fragments were serially passaged a minimum of three times, then approximately 30 mg tumor fragments were implanted subcutaneously through a small surgical incision under general anaesthesia. Small molecule inhibitor administration by intraperotineal or oral administration was initiated when the tumors reached a volume of 100 mm^3. For intraperotineal administration, small molecule inhibitors of HDAC (40-50 mg/kg body weight/day) were dissolved in 100% DMSO and administered daily intraperitoneally by injection. For oral administration, small molecule inhibitors of HDAC (40-50 mg/kg body weight/days) were dissolved in a solution containing 65% polyethylene glycol 400 (PEG 400 (Sigma-Aldridge, Mississauga, Ontario, CA, Catalogue No. P-3265), 5% ethanol, and 30% water. Tumor volumes were monitored twice weekly up to 20 days. Each experimental group contained at least 6-8 animals. Percentage inhibition was calculated using volume of tumor from vehicle-treated mice as controls.

A549 [8] = test: tumor growth in mouse model, lung; type: in vivo, BALB/c nude mice; conditions: 50 mg/kg body weight/day, ip
Experimental: as §5

human HDAC-6 = biological target: T4, human HDAC-6 (Homo sapiens, UniProt Q9UBN7); test: histone deacetylase enzyme assay, HDAC-6; type: biochemical; conditions: recombinant human enzyme, [3H]-acetylated histone substrate, 2 hours; read-out: Enzyme IC50 (μM) HDAC6
T4 construct: made in house; host or cells: insect cells (baculovirus expression system)
T4 sequence (Q9UBN7 whole entry): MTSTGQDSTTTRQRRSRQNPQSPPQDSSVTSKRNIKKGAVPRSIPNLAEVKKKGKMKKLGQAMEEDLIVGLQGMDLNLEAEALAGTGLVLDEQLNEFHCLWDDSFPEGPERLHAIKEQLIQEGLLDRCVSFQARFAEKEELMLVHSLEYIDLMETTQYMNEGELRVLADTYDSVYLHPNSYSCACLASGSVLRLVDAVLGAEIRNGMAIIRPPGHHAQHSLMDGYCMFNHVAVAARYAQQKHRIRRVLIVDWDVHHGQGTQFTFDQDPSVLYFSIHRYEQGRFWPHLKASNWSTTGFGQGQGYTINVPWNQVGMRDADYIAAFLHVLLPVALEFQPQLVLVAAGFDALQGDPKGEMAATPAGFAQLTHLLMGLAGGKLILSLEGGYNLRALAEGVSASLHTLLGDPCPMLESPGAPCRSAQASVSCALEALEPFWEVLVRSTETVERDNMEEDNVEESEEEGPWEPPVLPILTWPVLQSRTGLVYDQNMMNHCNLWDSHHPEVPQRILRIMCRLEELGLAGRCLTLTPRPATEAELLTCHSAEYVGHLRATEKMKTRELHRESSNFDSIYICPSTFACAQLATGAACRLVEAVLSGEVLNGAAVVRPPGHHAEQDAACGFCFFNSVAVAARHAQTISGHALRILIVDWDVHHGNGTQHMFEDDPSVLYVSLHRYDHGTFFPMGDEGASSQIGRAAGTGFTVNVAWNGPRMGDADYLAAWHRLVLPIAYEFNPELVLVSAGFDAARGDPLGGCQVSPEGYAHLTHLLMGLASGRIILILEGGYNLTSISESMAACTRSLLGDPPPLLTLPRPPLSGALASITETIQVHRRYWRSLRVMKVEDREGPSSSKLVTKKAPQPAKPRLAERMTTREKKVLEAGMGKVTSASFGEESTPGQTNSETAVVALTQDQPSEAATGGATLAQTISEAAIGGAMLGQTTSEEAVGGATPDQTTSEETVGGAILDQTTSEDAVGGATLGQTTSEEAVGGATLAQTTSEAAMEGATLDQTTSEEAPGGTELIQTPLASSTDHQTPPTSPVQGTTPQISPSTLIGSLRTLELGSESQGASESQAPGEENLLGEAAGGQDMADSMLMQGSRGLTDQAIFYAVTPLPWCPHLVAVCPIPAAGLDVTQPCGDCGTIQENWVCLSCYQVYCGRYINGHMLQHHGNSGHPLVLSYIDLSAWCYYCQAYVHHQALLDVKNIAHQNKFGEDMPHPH
Experimental: as §3, §4

[9] = system: human colon cancer HCT116 cells; test: MTT assay of cell proliferation; type: cell-based; conditions: HCT-116, 72 hours
Experimental: Two thousand (2,000) human colon cancer HCT116 cells (ATCC, Manassas, Va. were used in an MTT (3-[4,5-dimethylthiazol-2-yl]-2,5 diphenyl tetrazolium bromide) assay to quantitatively determine cell proliferation and cytotoxicity. Typically, HCT116 cells were plated into each well of the 96-well tissue culture plate and left overnight to attach to the plate. Compounds at various concentrations were added into the culture media (final DMSO concentration 1%) and incubated for 72 hours. MTT solution (obtained from Sigma as powder) was added and incubated with the cells for 4 hours at 37° C. in incubator with 5% CO2. During the incubation, viable cells convert MTT to a water-insoluble formazan dye. Solubilizing buffer (50% N,N-dimethylformamide, 20% SDS, pH 4.7) was added to cells and incubated for overnight at 37C in incubator with 5% CO2. Solubilized dye was quantitated by calorimetric reading at […] using a reference of […]. Optical density values were converted to cell number values by comparison to a standard growth curve for each cell line.

| fold induction of transcription, Bax, A549 [1] [fold] | fold induction of transcription, GADD45, A549 [2] [fold] | fold induction of transcription, p21, A549 [4] [fold] | IC50 (human HDAC-1) [µM] | IC50 (human HDAC-4) [µM] | IC50 (human HDAC-3) [µM] | IC50 (human HDAC-6) [µM] | EC50 [9] [µM] | SMILES | Apoptosis After 48 Hour Treatment HMEC (HMEC) | Apoptosis After 48 Hour Treatment T24 (T24) | Apoptosis After 48 Hour Treatment A549 (A549 [3]) | Apoptosis After 48 Hour Treatment MDAmb231 (MDAmb231) | H4-Ac [5] [µM] | Cell Cycle Arrest EC [6] [µM] | % inhibitor of tumor formation in vivo, colon [7] [%] | % inhibitor of tumor formation in vivo, lung (A549 [8]) [%] |
| --- | --- | --- | --- | --- | --- | --- | --- | --- | --- | --- | --- | --- | --- | --- | --- | --- |
| 0.8 | 0.6 | 2.8 | – | – | – | – | – | CC(/C=C/C(=O)NO)=C\[C@@H](C)C(=O)c1ccc(N(C)C)cc1 [TSA, (R)-Trichostatin A, reference compound] | + (2-3X fold) | ++ (3-5X fold) | ++ (3-5X fold) | ++ (3-5X fold) | – | – | – | – |
| – | – | – | 3 | 35 | 30 | > 30 | 4 | Nc1ccccc1NC(=O)/C=C/C#Cc1cccc(NS(=O)(=O)c2ccccc2)c1 [Compound 2] | – | – | – | – | 5 | 8 | 53 | 54 |
